Laboratory results taken from US8642601B2, “Inhibitors of JNK” (Roche Palo Alto LLC, priority 2010, dated 2014).
pIC50: −log10 of the molar value.

tested on: T1, JNK; experiment: JNK Assay in vitro (phosphorylation of GST-ATF2 (19-96) with [γ-33P] ATP); assay type: biochemical; details: JNK isoform not stated for Table 1 (method describes human JNK1α1, JNK2α2, JNK3); Km concentrations of ATP and substrate
T1 construct: Human JNK2α2 assay contains 1 nM enzyme; Human JNK1α1 assay contains 2 nM enzyme
Protocol: JNK activity was measured by phosphorylation of GST-ATF2 (19-96) with [γ-^33P] ATP. The enzyme reaction was conducted at Km concentrations of ATP and the substrate at final volume of 40 μl in buffer containing 25 mM HEPES, pH 7.5, 2 mM dithiothreitol, 150 mM NaCl, 20 mM MgCl2, 0.001% Tween® 20, 0.1% BSA and 10% DMSO. Human JNK2α2 assay contains 1 nM enzyme, 1 μM ATF2, 8 μM ATP with 1 uCi [γ-^33P] ATP. Human JNK1α1 assay contains 2 nM enzyme, 1 μM ATF2, 6 μM ATP with 1 μCi [γ-^33P] ATP. Human JNK3 (Upstate Biotech #14-501M) assay contains 2 nM enzyme, 1 μM ATF2, 4 μM ATP with 1 μCi [γ-^33P] ATP. The enzyme assay was carried out in the presence or absence of several compound concentrations. JNK and compound were pre-incubated for 10 min., followed by initiation of the enzymatic reaction by adding ATP and the substrate. The reaction mixture was incubated at 30° C. for 30 min. At the end of incubation, the reaction was terminated by transferring 25 μl of the reaction mixture to 150 μl of 10% glutathione Sepharose® slurry (Amersham #27-4574-01) containing 135 mM EDTA. The reaction product was captured on the affinity resin, and washed on a filtration plate (Millipore, MABVNOB50) with phosphate buffered saline for six times to remove free radionucleotide. The incorporation of ^33P into ATF2 was quantified on a microplate scintillation counter (Packard Topcount). Compound inhibition potency on JNK was measured by IC50 value generated from ten concentration inhibition curves fitted into the 3-parameter model: % inhibition=Maximum/(1+(IC50/[Inhibitor])^slope). Data were analyzed on Microsoft Excel for parameter estimation.

Row | Structure (SMILES) | pIC50
1 | CCCN1CCC[C@H](NC(=O)[C@H]2CC[C@H](Nc3nccc(-n4ccc5c(OCCCS(C)(=O)=O)cccc54)n3)CC2)C1 (stereo in doubt) [Compound 14, 4-{4-[4-(3-Methanesulfonyl-propoxy)-indol-1-yl]-pyrimidin-2-ylamino}-cyclohexanecarboxylic acid ((R)-1-propyl-piperidin-3-yl)-amide] | 7.05
2 | CCN1CCC[C@@H](NC(=O)[C@H]2CC[C@H](Nc3nccc(-n4ccc5c(OCCCS(C)(=O)=O)cccc54)n3)CC2)C1 (stereo in doubt) [Compound 17, 4-{4-[4-(3-Methanesulfonyl-propoxy)-indol-1-yl]-pyrimidin-2-ylamino}-cyclohexanecarboxylic acid ((S)-1-ethyl-piperidin-3-yl)-amide] | 6.94
3 | CCOC(=O)[C@@H]1CCCN(C(=O)[C@H]2CC[C@H](Nc3nccc(-n4ccc5c(OCCCS(C)(=O)=O)cccc54)n3)CC2)C1 [Compound 2, (R)-1-(4-{4-[4-(3-Methanesulfonyl-propoxy)-indol-1-yl]-pyrimidin-2-ylamino}-cyclohexanecarbonyl)-piperidine-3-carboxylic acid ethyl ester] | 7.13
4 | CCN1CCN(C(=O)[C@H]2CC[C@H](Nc3nccc(-n4ccc5c(OCC6CCS(=O)(=O)C6)cccc54)n3)CC2)C[C@H]1C (stereo partly drawn) [Compound 3, (4-{4-[4-(1,1-Dioxo-tetrahydro-1λ^6-thiophen-3-ylmethoxy)-indol-1-yl]-pyrimidin-2-ylamino}-cyclohexyl)-((R)-4-ethyl-3-methyl-piperazin-1-yl)-methanone] | 7.34
5 | CCN1CCN(C(=O)[C@H]2CC[C@H](Nc3nccc(-n4ccc5c(OCC6CCS(=O)(=O)C6)cccc54)n3)CC2)C[C@@H]1C (stereo partly drawn) [Compound 9, (4-{4-[4-(1,1-Dioxo-tetrahydro-1λ^6-thiophen-3-ylmethoxy)-indol-1-yl]-pyrimidin-2-ylamino}-cyclohexyl)-((S)-4-ethyl-3-methyl-piperazin-1-yl)-methanone] | 7.71
6 | CCCN1CC[C@@H](NC(=O)[C@H]2CC[C@H](Nc3nccc(-n4ccc5c(OCCCS(C)(=O)=O)cccc54)n3)CC2)C1 [Compound 11, 4{4-[4-(3-Methanesulfonyl-propoxy)-indol-1-yl]-pyrimidin-2-ylamino}-cyclohexanecarboxylic acid ((R)-1-propyl-pyrrolidin-3-yl)-amide] | 6.78
7 | CCN1CC[C@H](NC(=O)[C@H]2CC[C@H](Nc3nccc(-n4ccc5c(OCCCS(C)(=O)=O)cccc54)n3)CC2)C1 [Compound 13, 4-{4-[4-(3-Methanesulfonyl-propoxy)-indol-1-yl]-pyrimidin-2-ylamino}-cyclohexanecarboxylic acid ((S)-1-ethyl-pyrrolidin-3-yl)-amide] | 6.47
8 | CN(CC1CCCCN1C)C(=O)[C@H]1CC[C@H](Nc2nccc(-n3ccc4c(OCCCS(C)(=O)=O)cccc43)n2)CC1 (stereo partly shown) [Compound 19, 4-{4-[4-(3-Methanesulfonyl-propoxy)-indol-1-yl]-pyrimidin-2-ylamino}-cyclohexanecarboxylic acid methyl-(1-methyl-piperidin-2-ylmethyl)-amide] | 7.10
9 | CCN1CCCC1CNC(=O)[C@H]1CC[C@H](Nc2nccc(-n3ccc4c(OCCCS(C)(=O)=O)cccc43)n2)CC1 (stereo partly shown) [Compound 20, 4-{4-[4-(3-Methanesulfonyl-propoxy)-indol-1-yl]-pyrimidin-2-ylamino}-cyclohexanecarboxylic acid (1-ethyl-pyrrolidin-2-ylmethyl)-amide] | 7.09
10 | CS(=O)(=O)CCCOc1cccc2c1ccn2-c1ccnc(N[C@H]2CC[C@H](C(=O)N3C[C@@H]4C[C@@H]3CN4)CC2)n1 [Compound 21, (1R,4S)-2,5-Diaza-bicyclo[2.2.1]hept-2-yl-(4-{4-[4-(3-methanesulfonyl-propoxy)-indol-1-yl]-pyrimidin-2-ylamino}-cyclohexyl)-methanone] | 6.84
11 | CN1C2CCC1CN(C(=O)[C@H]1CC[C@H](Nc3nccc(-n4ccc5c(OCCCS(C)(=O)=O)cccc54)n3)CC1)C2 [Compound 22] | 7.00
12 | C[C@@H]1CN(C(=O)[C@H]2CC[C@H](Nc3nccc(-n4ncc5c(OCCCS(C)(=O)=O)cccc54)n3)CC2)CCN1 [Compound 24, (4-{4-[4-(3-Methanesulfonyl-propoxy)-indazol-1-yl]-pyrimidin-2-ylamino}-cyclohexyl)-((R)-3-methyl-piperazin-1-yl)-methanone] | 7.22
13 | C[C@H]1CN(C(=O)[C@H]2CC[C@H](Nc3nccc(-n4ncc5c(OCC6CCS(=O)(=O)C6)cccc54)n3)CC2)CCN1 (stereo partly drawn) [Compound 25, (4-{4-[4-(1,1-Dioxo-tetrahydro-1λ^6-thiophen-3-ylmethoxy)-indazol-1-yl]-pyrimidin-2-ylamino}-cyclohexyl)-((S)-3-methyl-piperazin-1-yl)-methanone] | 7.34
14 | CCOC1CC2CCC(C1)N2C(=O)[C@H]1CC[C@H](Nc2nccc(-n3ccc4c(OCCCS(C)(=O)=O)cccc43)n2)CC1 (stereo partly shown) [Compound 26, (3-Ethoxy-8-aza-bicyclo[3.2.1]oct-8-yl)-(4-{4-[4-(3-methanesulfonyl-propoxy)-indol-1-yl]-pyrimidin-2-ylamino}-cyclohexyl)-methanone; compound with formic acid] | 7.05
15 | C[C@H]1CN(C(=O)[C@H]2CC[C@H](Nc3nccc(-n4ncc5c(OCC6CCS(=O)(=O)C6)cccc54)n3)CC2)CCN1 (stereo partly drawn) [Compound 27, (4-{4-[4-(1,1-Dioxo-tetrahydro-1λ^6-thiophen-3-ylmethoxy)-indazol-1-yl]-pyrimidin-2-ylamino}-cyclohexyl)-((S)-3-methyl-piperazin-1-yl)-methanone] | 7.22
16 | CC1(C)CN(C(=O)[C@H]2CC[C@H](Nc3nccc(-n4ccc5c(OCC6CCS(=O)(=O)C6)cccc54)n3)CC2)CCN1 (stereo partly shown) [Compound 28, (3,3-Dimethyl-piperazin-1-yl)-(4-{4-[4-(1,1-dioxo-tetrahydro-1λ^6-thiophen-3-ylmethoxy)-indol-1-yl]-pyrimidin-2-ylamino}-cyclohexyl)-methanone] | 7.01
17 | CCN1CCCC(NC(=O)[C@H]2CC[C@H](Nc3nccc(-n4ccc5c(OCC6CCS(=O)(=O)C6)cccc54)n3)CC2)C1 (stereo partly shown) [Compound 29, 4-{4-[4-(1,1-Dioxo-tetrahydro-1λ^6-thiophen-3-ylmethoxy)-indol-1-yl]-pyrimidin-2-ylamino}-cyclohexanecarboxylic acid (1-ethyl-piperidin-3-yl)-amide] | 7.03
18 | CCN1CCC[C@H]1CNC(=O)[C@H]1CC[C@H](Nc2nccc(-n3ccc4c(OCCCS(C)(=O)=O)cccc43)n2)CC1 [Compound 30, 4-{4-[4-(3-Methanesulfonyl-propoxy)-indol-1-yl]-pyrimidin-2-ylamino}-cyclohexanecarboxylic acid ((S)-1-ethyl-pyrrolidin-2-ylmethyl)-amide] | 7.07
19 | CCN1CCC[C@@H]1CNC(=O)[C@H]1CC[C@H](Nc2nccc(-n3ccc4c(OCCCS(C)(=O)=O)cccc43)n2)CC1 [Compound 31, 4-{4-[4-(3-Methanesulfonyl-propoxy)-indol-1-yl]-pyrimidin-2-ylamino}-cyclohexanecarboxylic acid ((R)-1-ethyl-pyrrolidin-2-ylmethyl)-amide] | 7.01
